Reference: patent US20250205372A1, “RADIOPHARMACEUTICAL COMPOSITIONS, SYNTHETIC METHODS, AND METHODS OF TREATMENT” (The Research Foundation for The State University of New York, priority 2022, published 2025)
Each block holds one substance with its values, some of them ahead of it.

Key:
Type in all cases: physicochemical
[1] = Variable temperature mass spectrometry (VTMS): binding of the first second sphere water; conditions: gas phase
Method: VTMS and CIVP: All experiments were carried out in a home-built quadrupole time-of-flight mass spectrometer described elsewhere (Waller, 2019). Briefly, the complexes were introduced into the gas phase via an electrospray ionization (ESI) source purged with dry air using PEEK tubing of 50 μm inner diameter. All samples were diluted to 50-100 μM in 50/50 acetonitrile/water from 500 μM stock solutions and an optimized flow rate of 0.6 μL/min was employed. The ESI voltages were typically 2050-2080 V, low enough to prevent sample degradation while still ensuring steady signal. Once generated, the ions were introduced into a vacuum system and stored in a room temperature […] trap. Ions were extracted from this trap and mass selected by a quadrupole mass filter (Extrel), then guided into a cryogenically cooled ion trap capable of operating in a temperature range of 310 K-3 K. For Variable temperature mass spectrometry (VTMS) measurements (Racow, 2019), a mixture of water and helium was introduced via a pulsed valve allowing the formation of hydrated complexes, if thermodynamically feasible. A fraction of ions was then extracted, at 10 Hz, into a reflectron time-of-flight (TOF) mass spectrometer to analyze the relative intensities of the resulting hydrates. The trap was cooled down from 310 K at a rate of ˜1 K/min and mass spectra were collected by summing 1000 scans at 10 K intervals in the cooling down period. The partial pressure of water was maintained between 4×10−8 to 2×10^−7 Torr as detected by a residual gas analyzer (Extorr). Vibrational spectra were recorded using a method known as Cryogenic Ion Vibrational Predissociation (CIVP) spectroscopy as described previously (Yang 2019). Briefly, a mixture of N2 and helium was seeded into the cryogenic ion trap, encouraging the formation of nitrogen adducts (so-called “tags”) typically between 45 K-48 K. Tagged complexes were extracted into the TOF and intersected by a tunable infrared laser pulse from a Nd:YAG pumped OPO/OPA system (LaserVision). The tagged ions absorb a single photon when the wavelength is resonant with a vibrational transition, resulting in the desorption of the tag from the ions. Fragment ion yields were subsequently quantified by a reflectron mass spectrometer. The ratio of fragment to tagged ions, corrected for the laser power, at each wavelength thus yields a linear absorption spectrum of the ions of interest that can be analyzed in the same way as atypical FTIR spectrum.
Data Analysis and Detailed Discussion. The variable temperature mass spectra and corresponding speciation curves of the protonated tripeptide+NOTA (4) and the Ga-tripeptide-NOTA complex (^natGa-4) are shown in FIGS. 71-75. At the highest temperature shown in both figures, no water adduct is observed. […] Similar values were found for the metal-free complex, further confirming that only second sphere hydration events were observed.

[2] = Cleavage assay for cold complexes: pH-dependent autolytic cleavage monitored by LCMS/analytical HPLC; conditions: 80° C. and pH 4.5
Method: Cleavage of the cold model complexes was observed over a range of physiological pH conditions, including pH values of 4.5, 5.5, 6.5, and 7.5. Aqueous buffer solutions were prepared using 10 mM sodium acetate (pH 4.5 and 5.5) or 10 mM HEPES (pH 6.5 and 7.5), which were subsequently adjusted to the desired pH using NaOH and/or HCl. An aliquot of the complex was placed in an aqueous solution of the desired pH and incubated for 48 hours at 80° C., monitored regularly via LCMS.

[3] = Temperature-dependent autolytic release from ^67Ga-radiolabeled model peptides (radioHPLC)
Method: ^67Ga-citrate was purchased from Jubilant Radiopharma at an average specific activity of 205.0 MBq/mL. The ^67Ga-citrate solution was first converted to ^67GaCl3 using an established solid-phase extraction protocol (Pandy, 2021). The resulting average specific activity of the obtained ^67Ga-chloride solution used for solution radio-labelling was 80.5 MBq/mL. For radio-labeling of NOTA-based model peptides or compound 10, a 20 μL aliquot containing 4.5 MBq of ^67GaCl3 was added to the conjugate (10 nmol, 300 μL) in 10 mM of sodium acetate (NaOAc) buffer. The pH of the solution was adjusted to 5.0. Radiolabeling was completed after 20 minutes at room temperature. The radiolabeled conjugates were characterized with radio-HPLC.

[4] = Quantitation of the ^68Ga(8) product released from TG-10 resin over time

Substance: 2,2′-(7-(2-((1-1-((2-(((S)-1-amino-3-(1H-indol-3-yl)-1-oxopropan-2-yl)amino)-2-oxoethyl)amino)-3-hydroxy-1-oxopropan-2-yl)amino)-2-oxoethyl)-1,4,7-triazonane-1,4-diyl)diacetic acid [Compound 4]
ΔG (ΔG^298) for the binding of the first second sphere water [1]: -6.74 ± 0.19 kcal/mol
ΔH for the binding of the first second sphere water [1]: -13.2 ± 0.12 kcal/mol
ΔS for the binding of the first second sphere water [1]: −91.3 +/− 2.2 J/mol K

Substance: (S)-2,2′-(7-(2-((2-((2-((I-amino-3-(1H-indol-3-yl)-1-oxopropan-2-yl)amino)-2-oxoethyl)amino)-2-oxoethyl)amino)-2-oxoethyl)-1,4,7-triazonane-1,4-diyl)diacetic acid [Compound 3]
autolytic release (analytical HPLC chromatograms) [2]: no autolytic release

Substance: ^67Gallium 2,2′,2″-(10-(2-((1-1-((2-(((S)-1-amino-3-(H-indol-3-yl)-1-oxopropan-2-yl)amino)-2-oxoethyl)amino)-3-hydroxy-1-oxopropan-2-yl)amino)-2-oxoethyl)-1,4,7,10-tetraazacyclododecane-1,4,7-triyl)triacetate [^67Ga-5]
autolytic release (analytical radioHPLC chromatograms) ([3]; 25° C.): no autolytic release
autolytic release (analytical radioHPLC chromatograms) ([3]; 37° C.): no autolytic release
autolytic release (analytical radioHPLC chromatograms) ([3]; 80° C.): no autolytic release

Substance: ^67Gallium (S)-2,2′-(7-(2-((2-((2-((I-amino-3-(1H-indol-3-yl)-1-oxopropan-2-yl)amino)-2-oxoethyl)amino)-2-oxoethyl)amino)-2-oxoethyl)-1,4,7-triazonane-1,4-diyl)diacetate [^67Ga-3]
autolytic release (analytical radioHPLC chromatograms) ([3]; 25° C.): no autolytic release
autolytic release (analytical radioHPLC chromatograms) ([3]; 37° C.): lack of fast autolytic release

Substance: ^68Gallium (((1S)-1-carboxy-5-(3-(naphthalen-2-yl)-2-((1r,4S)-4-((6-oxo-6-((4-((1,4,7-tris(carboxymethyl)-1,4,7-triazonan-2-yl)methyl)phenyl)amino)hexanamido)methyl)cyclohexane-1-carboxamido)propanamido)pentyl)carbamoyl)-L-glutamic acid triacetate [^68Ga(8)]
Activity released per time ([4]; released from TG-10, 10 min): 14.2 ± 1.57%
Cumulative released activity ([4]; released from TG-10, 10 min): 14.2 ± 1.57%
Activity released per time ([4]; released from TG-10, 20 min): 17.9 ± 0.97%
Cumulative released activity ([4]; released from TG-10, 20 min): 32.1 ± 0.60%
Activity released per time ([4]; released from TG-10, 30 min): 18.9 ± 0.61%
Cumulative released activity ([4]; released from TG-10, 30 min): 50.9 ± 1.21%
Activity released per time ([4]; released from TG-10, 60 min): 15.4 ± 0.85%
Cumulative released activity ([4]; released from TG-10, 60 min): 66.3 ± 0.36%
Activity released per time ([4]; released from TG-10, 90 min): 11.5 ± 0.84%
Cumulative released activity ([4]; released from TG-10, 90 min): 77.8 ± 1.20%
Activity released per time ([4]; released from TG-10, 120 min): 9.2 ± 1.56%
Cumulative released activity ([4]; released from TG-10, 120 min): 87.0 ± 2.76%
Cumulative released activity ([4]; released from TG-10, last line of table, time not given): 88.0%

Other lines, results leading:

autolytic release (analytical HPLC chromatograms) [2]: no autolytic release
Substance: ^natCopper 2,2′,2-(10-(2-(((R)-1-((2-(((S)-1-amino-3-(1H-indol-3-yl)-1-oxopropan-2-yl)amino)-2-oxoethyl)amino)-3-hydroxy-1-oxopropan-2-yl)amino)-2-oxoethyl)-1,4,7,10-tetraazacyclododecane-1,4,7-triyl)triacetate [^natCu-5]

autolytic release (analytical HPLC chromatograms) [2]: no autolytic release
Substance: ^natCopper 2,2′-(7-(2-((1-1-((2-(((S)-1-amino-3-(1H-indol-3-yl)-1-oxopropan-2-yl)amino)-2-oxoethyl)amino)-3-hydroxy-1-oxopropan-2-yl)amino)-2-oxoethyl)-1,4,7-triazonane-1,4-diyl)diacetate [^natCu-4]

autolytic release (analytical HPLC chromatograms) [2]: no autolytic release
Substance: ^natCopper (S)-2,2′-(7-(2-((2-((2-((1-amino-3-(1H-indol-3-yl)-1-oxopropan-2-yl)amino)-2-oxoethyl)amino)-2-oxoethyl)amino)-2-oxoethyl)-1,4,7-triazonane-1,4-diyl)diacetate [^natCu-3]

autolytic release (analytical HPLC chromatograms) [2]: no autolytic release
Substance: ^natGallium 2,2′,2″-(10-(2-((1-1-((2-(((S)-1-amino-3-(1H-indol-3-yl)-1-oxopropan-2-yl)amino)-2-oxoethyl)amino)-3-hydroxy-1-oxopropan-2-yl)amino)-2-oxoethyl)-1,4,7,10-tetraazacyclododecane-1,4,7-triyl)triacetate [^natGa-5]

ΔG (ΔG^298) for the binding of the first second sphere water [1]: -7.19 ± 0.645 kcal/mol
ΔH for the binding of the first second sphere water [1]: -11.7 ± 0.621 kcal/mol
ΔS for the binding of the first second sphere water [1]: −62.9 +/− 17.5 J/mol K
Substance: ^natGallium 2,2′-(7-(2-((1-1-((2-(((S)-1-amino-3-(1H-indol-3-yl)-1-oxopropan-2-yl)amino)-2-oxoethyl)amino)-3-hydroxy-1-oxopropan-2-yl)amino)-2-oxoethyl)-1,4,7-triazonane-1,4-diyl)diacetate [^natGa-4]

autolytic release (analytical HPLC chromatograms) [2]: no autolytic release
Substance: ^natScandium 2,2′,2″-(10-(2-((1-1-((2-(((S)-1-amino-3-(1H-indol-3-yl)-1-oxopropan-2-yl)amino)-2-oxoethyl)amino)-3-hydroxy-1-oxopropan-2-yl)amino)-2-oxoethyl)-1,4,7,10-tetraazacyclododecane-1,4,7-triyl)triacetate [^natSc-5]
